This is an account of results in patent EP2951180B1, “2,6,7,8 SUBSTITUTED PURINES AS HDM2 INHIBITORS” (Merck Sharp & Dohme Corp., priority 2013, dated 2014).

The structures appear in SMILES notation. Where two headings read alike, the source gives them in different places.

This experiment has as its target T1, HDM2 (Homo sapiens, UniProt Q00987).
T1 construct: Thioredoxin (N); made in house; host or cells: E. coli strain BL21(DE3)Rosetta
Description: HDM2 FRET assay (inhibition of binding of FITC labeled p53-pocket peptide to HDM2). The conditions noted are these: for IC50: read-out: FRET IC50. A digest of the protocol: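 Signal is read as the 520/495 nm emission ratio and converted to percent inhibition; nonlinear sigmoidal regression yields IC50. The assay mixes HDM2 (0.5 nM), FITC-p53 peptide (3 nM) and Tb anti-His antibody (0.25 nM) at 0.1% DMSO.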

Setting [1] is: 0.5 nM HDM2 (residues 17 to 125), 3nM peptide, two hour incubation at room temperature.

T1 sequence (Q00987 17-125): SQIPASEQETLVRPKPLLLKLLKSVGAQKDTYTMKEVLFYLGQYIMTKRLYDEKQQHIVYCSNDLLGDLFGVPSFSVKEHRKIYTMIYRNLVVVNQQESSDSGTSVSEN

By IC50 is commonly meant the concentration that inhibits the measured activity by half. Turning to `CC(C)c1ccnc(-c2nc3nc(-c4noc(=O)[nH]4)nc(N[C@H](C)C4CCC4)c3n2CC2CCC(C)(C)CC2)c1` [Example 18.9, (R)-3-(6-((1-cyclobutylethyl)amino)-7-((4,4-dimethylcyclohexyl)methyl)-8-(4-isopropylpyridin-2-yl)-7H-purin-2-yl)-1,2,4-oxadiazol-5(4H)-one], the IC50 (Table 18) was 394 nM.
On to `Cc1cccc(-c2nc3nc(C(=O)O)nc(NC4CCC(CNC(=O)OC(C)(C)C)CC4)c3n2Cc2ccc(C(F)(F)F)cc2)c1` (stereo not shown) [Example 6.35, 6-[(4-{[(tert-butoxycarbonyl)amino]methyl}cyclohexyl)amino]-8-(3-methylphenyl)-7-[4-(trifluoromethyl)benzyl]-7H-purine-2-carboxylic acid], for which, under “Table 6”, the IC50 was determined as 2340 nM.
Turning to `C[C@H](Nc1nc2nc(-c3noc(=O)[nH]3)nc(-c3cccc(Cl)c3)c2n1C[C@H]1CC[C@H](C)CC1)c1cccc(F)c1` [Example 16.49, 3-{6-(3-chlorophenyl)-8-{[(1S)-1-(3-fluorophenyl)ethyl]amino}-7-[(trans-4-methylcyclohexyl)methyl]-7H-purin-2-yl}-1,2,4-oxadiazol-5(4H)-one], the IC50 under setting [1] was 1.63 nM.
As for `C[C@@H]1CNCCN1c1nc2nc(-c3noc(=O)[nH]3)nc(N[C@H](C)C3CCC3)c2n1C[C@H]1CC[C@H](C)CC1` [Example 17.19, 3-(6-{[(1R)-1-cyclobutylethyl]amino}-7-[(trans-4-methylcyclohexyl)methyl]-8-[(2R)-2-methylpiperazin-1-yl]-7H-purin-2-yl)-1,2,4-oxadiazol-5(4H)-one], the 50% inhibitory concentration (IC50) (Table 17.2) worked out at 15.5 nM.
On to `CC([C@H]1CC[C@H](C)CC1)n1c(N2CCOC[C@H]2c2ccccc2)nc2nc(-c3n[nH]c(=O)o3)nc(-c3cncc(Cl)c3)c21` (single isomer, unassigned) [Example 18.14], for which, for the setting “Table 18”, the IC50 worked out at 0.62 nM.
As for `C[C@H]1CC[C@H](Cn2c(N3CCOC[C@H]3c3ccccc3)nc3nc(-c4noc(=O)[nH]4)nc(-c4cc(Cl)cnc4OCc4ccccc4)c32)CC1` [Example 16.161, 3-{6-[2-(benzyloxy)-5-chloropyridin-3-yl]-7-[(trans-4-methylcyclohexyl)methyl]-8-[(3R)-3-phenylmorpholin-4-yl]-7H-purin-2-yl}-1,2,4-oxadiazol-5(4H)-one], under setting [1], the IC50 came out at 3.65 nM.
Turning to `CCN1CCC(C)CC1c1nc2nc(C(=O)O)nc(N[C@H](C)C3CCC3)c2n1C[C@H]1CC[C@H](C)CC1` (stereo partly drawn) [Example 10.34, 6-(((R)-1-Cyclobutylethyl)amino)-8-(1-ethyl-4-methylpiperidin-2-yl)-7-((trans-4-methylcyclohexyl)methyl)-7H-purine-2-carboxylic acid], the IC50 (Table 10) was found to be 5.98 nM.
As for `CC[C@@H](Nc1nc(C(=O)O)nc2nc(-c3cc(C(C)C)ccn3)n(Cc3ccc(C(F)(F)F)cc3)c12)C1CCC1` [Example 6.55, 6-{[(1R)-1-cyclobutylpropyl]amino}-8-[4-(1-methylethyl)pyridin-2-yl]-7-[4-(trifluoromethyl)benzyl]-7H-purine-2-carboxylic acid], under “Table 6”, the IC50 was determined as 9.27 nM.
Consider `C[C@H]1CC[C@H](Cn2c(C3(F)CCCCC3)nc3nc(-c4n[nH]c(=O)o4)nc(-c4cncc(Cl)c4)c32)CC1` [Example 23.56, 5-{6-(5-chloropyridin-3-yl)-8-(1-fluorocyclohexyl)-7-[(trans-4-methylcyclohexyl)methyl] -7H-purin-2-yl}-1,3,4-oxadiazol-2(3H)-one], for which the IC50 (Table 23) worked out at 10.7 nM.
Turning to `CC(C)c1ccnc(-c2nc3nc(C(=O)O)nc(N[C@H](C)C4CCC4)c3n2Cc2ccc(C(F)(F)F)cc2N)c1` [Example 8.1, 7-[2-amino-4-(trifluoromethyl)benzyl]-6-{[(1R)-1-cyclobutylethyl]amino}-8-[4-(propan-2-yl)pyridin-2-yl]-7H-purine-2-carboxylic acid], the IC50 (Table 8) turned out to be 1.62 nM.
Regarding `C[C@H]1CC[C@H](Cn2c(N3CCO[C@H]4CCC[C@@H]43)nc3nc(-c4noc(=O)[nH]4)nc(-c4cncc(Cl)c4)c32)CC1` [Example 16.86, 3-{6-(5-chloropyridin-3-yl)-8-[(4aS,7aS)-hexahydrocyclopenta [b][1,4]oxazin-4(4aH)-yl]-7-[(trans-4-methylcyclohexyl)methyl]-7H-purin-2-yl}-1,2,4-oxadiazol-5(4H)-one], under setting [1], the IC50 turned out to be 344 nM.
As to `C[C@@H](Nc1nc(C(=O)O)nc2nc(-c3ccc4sccc4c3)n(Cc3ccc(C(F)(F)F)cc3)c12)C1CCC1` [Example 6.14, 8-(1-benzothiophen-5-yl)-6-{[(1R)-1-cyclobutylethyl]amino}-7-[4-(trifluoromethyl)benzyl]-7H-purine-2-carboxylic acid], the IC50 (Table 6) came to 35.3 nM.
Take `Cc1cccc(-c2nc3nc(C(=O)O)nc(N[C@@H](C)c4ccc(Cl)cc4)c3n2Cc2ccc(C(F)(F)F)cc2)c1` [Example 6.46, 6-{[(1S)-1-(4-chlorophenyl)ethyl]amino}-8-(3-methylphenyl)-7-[4-(trifluoromethyl)benzyl]-7H-purine-2-carboxylic acid]: the IC50 (Table 6) was determined as 4120 nM.
Turning to `C[C@@H]1OCCN(c2nc3nc(-c4n[nH]c(=O)o4)nc(-c4cccc(Cl)c4)c3n2C[C@H]2CC[C@H](C)CC2)[C@@H]1c1ccccc1` [Example 16.132, 5-{6-(3-chlorophenyl)-7-[(trans-4-methylcyclohexyl)methyl]-8-[(2S,3R)-2-methyl-3-phenylmorpholin-4-yl]-7H-purin-2-yl} - 1,3,4-oxadiazol-2(3H)-one], the IC50 under setting [1] is 89.5 nM.
With `C[C@@H](Nc1nc(-c2noc(=O)[nH]2)nc2nc(C(C)(O)c3nccs3)n(C[C@H]3CC[C@H](C)CC3)c12)C1CCC1` (stereo partly drawn) [Example 22.56, 3-(6-{[(1R)-1-cyclobutylethyl]amino}-8-[1-hydroxy-1-(1,3-thiazol-2-yl)ethyl]-7-[(trans-4-methylcyclohexyl)methyl] -7H-purin-2-yl)-1,2,4-oxadiazol-5(4H)-one], the half-inhibitory concentration (IC50) (Table 22) was determined as 2.45 nM.
As to `CCOc1cc(C(C)C)cc(-c2nc3nc(C(=O)O)nc(N[C@H](C)C4CCC4)c3n2C[C@H]2CC[C@H](C)CC2)n1` [Example 15.4, 6-(((R)-1-cyclobutylethyl)amino)-8-(6-ethoxy-4-isopropylpyridin-2-yl)-7-((trans-4-methylcyclohexyl)methyl)-7H-purine-2-carboxylic acid], the IC50 under setting [1] was determined as 4.44 nM.
With `C[C@@H](Nc1nc(C(=O)O)nc2nc(C(C)(C)c3ccccc3)n(C[C@H]3CC[C@H](C)CC3)c12)C1CCC1` [Example 20.2, 6-{[(1R)-1-cyclobutylethyl]amino}-7-[(trans-4-methylcyclohexyl)methyl]-8-(1-methyl-1-phenylethyl)-7H-purine-2-carboxylic acid], for the setting “Table 20”, the IC50 came to 3.45 nM.
Consider `C[C@@H](Nc1nc(-c2noc(=O)[nH]2)nc2nc(C(C)(O)c3nccs3)n(C[C@H]3CC[C@H](C)CC3)c12)C1CCC1` (stereo partly drawn) [Example 22.58, 3-(6-{[(1R)-1-cyclobutylethyl]amino}-8-[1-hydroxy-1-(1,3-thiazol-2-yl)ethyl]-7-[(trans-4-methylcyclohexyl)methyl] -7H-purin-2-yl)-1,2,4-oxadiazol-5(4H)-one], for which, for the setting “Table 22”, the IC50 amounted to 7.21 nM.
Turning to `C[C@@H]1COCCN1c1nc2nc(-c3n[nH]c(=O)o3)nc(-c3cncc(Cl)c3)c2n1C[C@H]1CC[C@H](C)CC1` [Example 16.11, 5-(6-(5-chloropyridin-3-yl)-7-(((trans)-4-methylcyclohexyl)methyl)-8-((R)-3-methylmorpholino)-7H-purin-2-yl)-1,3,4-oxadiazol-2(3H)-one], the IC50 under setting [1] was determined as 27.7 nM.
As for `CC(C)CC1CCCCN1c1nc2nc(C(=O)O)nc(N[C@H](C)C3CCC3)c2n1Cc1ccc(C(F)(F)F)cc1` (stereo partly drawn) [Example 9.120, 6-{[(1R)-1-cyclobutylethyl]amino}-8-[2-(2-methylpropyl)piperidin-1-yl]-7-[4-(trifluoromethyl)benzyl]-7H-purine-2-carboxylic acid], for the setting “Table 9”, the IC50 amounted to 5.32 nM.
For `Cc1cccc(-c2nc3nc(C(=O)O)nc(N(C)C(C)C4CC4)c3n2Cc2ccc(C(F)(F)F)cc2)c1` (stereo not shown) [Example 6.88, 6-[(1-cyclopropylethyl)(methyl)amino]-8-(3-methylphenyl)-7-[4-(trifluoromethyl)benzyl]-7H-purine-2-carboxylic acid], the inhibition at 1 µM (read-out: inh. at 1000 nM (FRET)) was 33%.
As to `C[C@@H](Nc1nc(-c2n[nH]c(=O)n2C)nc2nc(C3(c4ccccc4)CCC3)n(C[C@H]3CC[C@H](C)CC3)c12)C1CCC1` [Example 20.9, 5-[6-{[(1R)-1-cyclobutylethyl]amino}-7-[(trans-4-methylcyclohexyl)methyl]-8-(1-phenylcyclobutyl)-7H-purin-2-yl]-4-methyl-2,4-dihydro-3H-1,2,4-triazol-3-one], for the setting “Table 20”, the IC50 came out at 84.4 nM.
As to `C[C@H]1CC[C@H](Cn2c(N3CCOC[C@H]3c3ccccc3)nc3nc(-c4noc(=O)[nH]4)nc(-c4cc(Cl)cc(CO)c4)c32)CC1` [Example 16.44, 3-{6-[3-chloro-5-(hydroxymethyl)phenyl]-7-[(trans-4-methylcyclohexyl)methyl]-8-[(3R)-3-phenylmorpholin-4-yl]-7H-purin-2-yl}-1,2,4-oxadiazol-5(4H)-one], the IC50 under setting [1] was 0.205 nM.
On to `COc1ccc(C)cc1-c1nc2nc(C(=O)O)nc(NC(C)C3CC(C)C3)c2n1Cc1ccc(C(F)(F)F)cc1` (stereo not shown) [Example 7.18, 8-(2-methoxy-5-methylphenyl)-6-{[1-(3-methylcyclobutyl)ethyl]amino}-7-[4-(trifluoromethyl)benzyl]-7H-purine-2-carboxylic acid], for which the IC50 (Table 7) is 162 nM.
For `CC1CCN(c2nc3nc(-c4noc(=O)[nH]4)nc(N[C@H](C)C4CCC4)c3n2C[C@H]2CC[C@H](C)CC2)C(c2ccccc2)C1` (single isomer, unassigned) [Example 11.68], the IC50 (Table 11) was determined as 2.04 nM.
